Source: patent US7202219B1, “Use of D-tagatose as a prebiotic food component” (priority 1998, dated 2007)

What was measured:
[1] = Concentration of butyrate in gastrointestinal sections at slaughtering (Example 2); format: in vivo, pig; settings: pigs, 0, 10 or 20% D-tagatose in diet for 33 days; hind gut (FIG. 1)
Experimental: (§1) In this study, 3 groups of each 2 pigs were having a standard pig diet+20% sucrose, a standard pig diet+10% sucrose+10% D-tagatose, and a standard pig diet+20% D-tagatose for 33 days. The pigs were killed on the 33. day 6 hours after morning feeding, and the entire gastrointestinal tract was divided into 8 segments.
(§2) The concentrations of the various SCFA were measured in the 8 sections immediately after killing, and further the content from the 8 sections was used for 12 hour in vitro incubations at 37° C. and anaerobic conditions. In this in vitro assay no D-tagatose was added, and the fermentation products originate from unabsorbed D-tagatose and other undigestible food components from the diets.

human faeces = assay: In vitro fermentation of tagatose by incubation of human faeces (Example 4); format: cell-based
Experimental: (§3) In this study 16 human volunteers deliver a faeces sample before any intake of D-tagatose (unadapted) and another faeces sample after 14 days' intake of 3×10 g of D-tagatose pr day (adapted). The 16 volunteers are on controlled diet 4 days before the delivery of each faeces samples. Faeces slurries, 20%, were incubated at 37° C. and anaerobic conditions for 48 hours with or without 1% D-tagatose added. Samples for determination of SCFA were taken after 4 hours and after 48 hours of incubation. The amount of SCFA produced by D-tagatose is calculated as the amount produced in the assay with 1% D-tagatose added subtracted by the amount produced in the assay without D-tagatose. Further, the delivered faeces samples were tested for content of various intestinal bacteria counts by spreading on selective media.

[2] = In vivo absorption of SCFA in the blood (Example 3); set-up: species or system pig
Experimental: In this pig study the in vivo absorption of SCFA in the blood is measured by taking blood samples simultaneously from 3 catheters in Vena Mesenterica, Ateria mesenterica and Vena Porta over a 12 hour period after the morning feeding. The absorption is measured in the same 5 pigs at 3 different occasions, that is after 7 days adaptation to standard pig diet+20% sucrose (sucrose), the first day of switching to a standard pig diet+20% D-tagatose (unadapted), and after 7 days adaptation to a standard pig diet+20% D-tagatose (adapted). The concentration of SCFA's is determined in samples from the portal vein, that is the blood stream leading from the digestive system to the liver, and in the arterial blood, that is the blood stream before the digestive system. The difference between the two integrated by time is a measure of the intestinal absorption of SCFA's.
The area between the 2 curves is equal to the total absorption of butyrate from the intestine.

[3] = system: content from the 8 sections; assay: 12 hour in vitro incubation of content from gut sections, no D-tagatose added (Example 2); format: cell-based, pig
Experimental: as §1, §2
The data presented here are normalized to production of SCFA pr kg feed.

colon content = assay: In vitro fermentation of D-tagatose by pig caecum/colon content slurries (Example 1); format: cell-based; settings: for Tagatose degradation: in vitro incubation; for Mole % of SCFA after microbial fermentation of D-Tagatose: Acetate / Mole % of SCFA after microbial fermentation of D-Tagatose: Butyrate / Mole % of SCFA after microbial fermentation of D-Tagatose: Capronate / Mole % of SCFA after microbial fermentation of D-Tagatose: Formate / Mole % of SCFA after microbial fermentation of D-Tagatose: Heptanoate / Mole % of SCFA after microbial fermentation of D-Tagatose: Propionate / Mole % of SCFA after microbial fermentation of D-Tagatose: Valerate: 1% tagatose added, 0–4 h
Experimental: In the study, one group of 8 pigs was having a standard diet+15% sucrose (unadapted), and another group of 8 pigs was fed a standard diet+5% sucrose+10% D-tagatose (adapted) for 17 days.
On the 17. day the pigs were killed 3 hours after the morning feeding, and the entire gastrointestinal tract was sectioned. […] 20% slurries were incubated at 37° C. and anaerobic conditions for 4 hours with or without 1% D-tagatose added. The amount of SCFA produced by D-tagatose is calculated as the amount produced in the assay with 1% D-tagatose added subtracted by the amount produced in the assay without D-tagatose.

intestinal bacteria = assay: Counts of intestinal bacteria in faeces on selective media (Example 4); format: in vivo; settings: human volunteers, 3×10 g D-tagatose pr day for 14 days versus before intake (FIG. 5)
Experimental: as §3

[4] = oral; cited from earlier work
human faecal incubations = settings: cited from earlier work; for proportion of butyrate on fermentation: human faecal in vitro system (Mortensen et al. 1988)
[5] = 4 hours of incubation, Non-adapted
[6] = 48 hours of incubation, Adapted
[7] = 48 hours of incubation, Non-adapted
[8] = addition of D-tagatose to the diet
[9] = pigs after 7 days of adaptation to 20% D-tagatose diet (FIG. 4)
[10] = normalized pr kg feed, 0, 10 or 20% D-tagatose in diet (FIG. 3)

## O=C(CO)[C@@H](O)[C@@H](O)[C@H](O)CO [D-tagatose]
[1]
  concentration of butyrate in the various gastrointestinal sections at the time of slaughtering: increasing in a dose response manner
Human faeces; 4 hours of incubation, Adapted
  Molar Ratios (Mole %) of SCFA's: Acetic acid: 42.1 Mole %
  Molar Ratios (Mole %) of SCFA's: Butyric acid: 34.7 Mole %
  Molar Ratios (Mole %) of SCFA's: Capronic acid: 3.5 Mole %
  Molar Ratios (Mole %) of SCFA's: Formic acid: 5.8 Mole %
  Molar Ratios (Mole %) of SCFA's: Heptanic acid: 0.6 Mole %
  Molar Ratios (Mole %) of SCFA's: Lactic acid: 9.0 Mole %
  Molar Ratios (Mole %) of SCFA's: Propionic acid: 4.1 Mole %
  Molar Ratios (Mole %) of SCFA's: Valeric acid: 1.0 Mole %
  Total SCFA (production mmol/l): 24.3 mmol/L
Human faeces; [5]
  Molar Ratios (Mole %) of SCFA's: Acetic acid: 62.8 Mole %
  Molar Ratios (Mole %) of SCFA's: Butyric acid: 24.5 Mole %
  Molar Ratios (Mole %) of SCFA's: Capronic acid: 6.7 Mole %
  Molar Ratios (Mole %) of SCFA's: Formic acid: 0.5 Mole %
  Molar Ratios (Mole %) of SCFA's: Heptanic acid: 1.1 Mole %
  Molar Ratios (Mole %) of SCFA's: Lactic acid: 3.9 Mole %
  Molar Ratios (Mole %) of SCFA's: Propionic acid: 0.0 Mole %
  Molar Ratios (Mole %) of SCFA's: Valeric acid: 3.0 Mole %
  Total SCFA (production mmol/l): 8.8 mmol/L
Human faeces; [6]
  Molar Ratios (Mole %) of SCFA's: Acetic acid: 35.3 Mole %
  Molar Ratios (Mole %) of SCFA's: Butyric acid: 47.0 Mole %
  Molar Ratios (Mole %) of SCFA's: Capronic acid: 13.5 Mole %
  Molar Ratios (Mole %) of SCFA's: Formic acid: 0.1 Mole %
  Molar Ratios (Mole %) of SCFA's: Heptanic acid: 1.2 Mole %
  Molar Ratios (Mole %) of SCFA's: Lactic acid: 3.0 Mole %
  Molar Ratios (Mole %) of SCFA's: Propionic acid: 0.5 Mole %
  Molar Ratios (Mole %) of SCFA's: Valeric acid: 1.6 Mole %
  Total SCFA (production mmol/l): 44.0 mmol/L
Human faeces; [7]
  Molar Ratios (Mole %) of SCFA's: Acetic acid: 37.7 Mole %
  Molar Ratios (Mole %) of SCFA's: Butyric acid: 38.7 Mole %
  Molar Ratios (Mole %) of SCFA's: Capronic acid: 15.2 Mole %
  Molar Ratios (Mole %) of SCFA's: Formic acid: 0.0 Mole %
  Molar Ratios (Mole %) of SCFA's: Heptanic acid: 1.6 Mole %
  Molar Ratios (Mole %) of SCFA's: Lactic acid: 8.6 Mole %
  Molar Ratios (Mole %) of SCFA's: Propionic acid: 0.0 Mole %
  Molar Ratios (Mole %) of SCFA's: Valeric acid: 1.2 Mole %
  Total SCFA (production mmol/l): 49.0 mmol/L
Human faeces; human faeces slurry, 1% D-tagatose
  time of adaptation in the in vitro incubation system: ≤ 48 h
[2]; adapted versus unadapted to 20% D-tagatose diet
  total absorption of butyrate (area between portal and arterial curves): does not differ in the adapted and unadapted state
[2]; [8]
  absorption of acetate: not increased
  absorption of propionate: not increased
[2]; [9]
  concentration of butyrate in arterial blood: increasing
  concentration of butyrate in the portal blood: very steep increase a few hours after feeding
[2]; pigs in vivo, 20% D-tagatose diet
  time of adaptation to butyrate production: ≤ 12 h
[2]; pigs unadapted, first day of 20% D-tagatose diet, 12 hours after feeding (FIG. 4)
  butyrate in the portal vein: gradually increasing over the 12 hours of measuring
[3]; content from gut sections of pigs on 0, 10 or 20% D-tagatose diet (FIG. 2)
  12 hour in vitro production of butyrate: acting in a dose response manner
[3]; [10]
  total 12 hour in vitro production of SCFA in the gut: acetate: not influenced
  total 12 hour in vitro production of SCFA in the gut: butyrate: in a dose response manner promote the microbiological production of butyrate
Colon content; Control pigs (unadapted), colon
  Tagatose degradation: 1.1 g/h/kg digesta
Colon content; Control pigs, caecum
  Mole % of SCFA after microbial fermentation of D-Tagatose: Acetate: 54.8 Mole %
  Mole % of SCFA after microbial fermentation of D-Tagatose: Butyrate: 18.2 Mole %
  Mole % of SCFA after microbial fermentation of D-Tagatose: Capronate: 2.0 Mole %
  Mole % of SCFA after microbial fermentation of D-Tagatose: Formate: 2.5 Mole %
  Mole % of SCFA after microbial fermentation of D-Tagatose: Heptanoate: 0.2 Mole %
  Mole % of SCFA after microbial fermentation of D-Tagatose: Propionate: 11.2 Mole %
  Mole % of SCFA after microbial fermentation of D-Tagatose: Valerate: 11.1 Mole %
  Tagatose degradation: 2.7 g/h/kg digesta
Colon content; Control pigs, colon
  Mole % of SCFA after microbial fermentation of D-Tagatose: Acetate: 70.1 Mole %
  Mole % of SCFA after microbial fermentation of D-Tagatose: Butyrate: 16.7 Mole %
  Mole % of SCFA after microbial fermentation of D-Tagatose: Capronate: 4.8 Mole %
  Mole % of SCFA after microbial fermentation of D-Tagatose: Formate: 0.0 Mole %
  Mole % of SCFA after microbial fermentation of D-Tagatose: Heptanoate: 0.6 Mole %
  Mole % of SCFA after microbial fermentation of D-Tagatose: Propionate: 0.0 Mole %
  Mole % of SCFA after microbial fermentation of D-Tagatose: Valerate: 7.8 Mole %
Colon content; D-tagatose pigs (adapted), colon
  Tagatose degradation: 15.3 g/h/kg digesta
Colon content; D-tagatose pigs, caecum
  Mole % of SCFA after microbial fermentation of D-Tagatose: Acetate: 21.5 Mole %
  Mole % of SCFA after microbial fermentation of D-Tagatose: Butyrate: 21.8 Mole %
  Mole % of SCFA after microbial fermentation of D-Tagatose: Capronate: 1.9 Mole %
  Mole % of SCFA after microbial fermentation of D-Tagatose: Formate: 14.4 Mole %
  Mole % of SCFA after microbial fermentation of D-Tagatose: Heptanoate: 0.0 Mole %
  Mole % of SCFA after microbial fermentation of D-Tagatose: Propionate: 17.0 Mole %
  Mole % of SCFA after microbial fermentation of D-Tagatose: Valerate: 23.4 Mole %
  Tagatose degradation: 3.7 g/h/kg digesta
Colon content; D-tagatose pigs, colon
  Mole % of SCFA after microbial fermentation of D-Tagatose: Acetate: 23.3 Mole %
  Mole % of SCFA after microbial fermentation of D-Tagatose: Butyrate: 46.3 Mole %
  Mole % of SCFA after microbial fermentation of D-Tagatose: Capronate: 6.8 Mole %
  Mole % of SCFA after microbial fermentation of D-Tagatose: Formate: 3.7 Mole %
  Mole % of SCFA after microbial fermentation of D-Tagatose: Heptanoate: 0.8 Mole %
  Mole % of SCFA after microbial fermentation of D-Tagatose: Propionate: 4.0 Mole %
  Mole % of SCFA after microbial fermentation of D-Tagatose: Valerate: 15.1 Mole %
Colon content; colon content from unadapted pigs
  butyrate in SCFA profile: less than 20%
Intestinal bacteria
  entero-bacteria in faeces: decreased
  number of lactic acid bacteria in faeces: increased in number
  number of lactobacilli in faeces: increased in number
[4]
  ingested D-tagatose absorbed in the small intestine: 15–20%

## O=C[C@H](O)[C@@H](O)[C@@H](O)[C@H](O)C(=O)O [galacturonic acid]
Human faecal incubations
  proportion of butyrate on fermentation: high proportion of butyrate

## O=C(O)[C@H]1OC(O)[C@H](O)[C@@H](O)[C@@H]1O (some centres unmarked) [glucoronic acid]
Human faecal incubations
  proportion of butyrate on fermentation: high proportion of butyrate

## OC[C@@H](O)[C@@H](O[C@H]1O[C@H](CO)[C@@H](O)[C@H](O)[C@H]1O)[C@H](O)[C@@H](O)CO [maltitol]
Human faecal incubations; Rapaille and Bornet 1997
  butyrate on in vitro incubation: 10%

## OC[C@@H](O)[C@@H](O)[C@H](O)[C@@H](O)CO [sorbitol]
Human faecal incubations
  proportion of butyrate on fermentation: high proportion of butyrate
